Source: ChEMBL document CHEMBL3774337, “In vivo phase II-enzymes inducers, as potential chemopreventive agents, based on the chalcone and furoxan skeletons” (Bioorg Med Chem, 2016)
Calls of active or inactive are those of the source. The calls are words filed in the database; no cut-off is given here.

Legend:
HT-29 = experiment: Cytotoxicity against human HT-29 cells at 100 uM after 24 hrs by SRB assay; format: functional, cell-based
Mus musculus [1] = species: Mus musculus; experiment: Induction of quinone reductase specific activity in mouse Hepa1c1c7 cells using 2,6-DCIP as substrate at 10 uM measured for 1 min relative to control; format: cell-based
Mus musculus [2] = species: Mus musculus; experiment: Induction of quinone reductase specific activity in mouse mutant BpRc1 cells expressing defective translocator receptor Arnt using 2,6-DCIP as substrate at 10 uM measured for 1 min relative to control; format: cell-based
Salmonella typhimurium [3] = experiment: Mutagenicity in Salmonella typhimurium TA98 assessed as revertant colonies at 6 to 500 ug/plate by Ames test in absence of mouse liver S9 fraction; format: toxicity, organism-based; conditions: salmonella enterica subsp. enterica serovar typhimurium
MCF7 = experiment: Cytotoxicity against human MCF7 cells at 100 uM after 24 hrs by SRB assay; format: functional, cell-based
Mus musculus [4] = species: Mus musculus; experiment: Ratio of quinone reductase specific activity in mouse Hepa1c1c7 cells to quinone reductase specific activity in mouse mutant BpRc1 cells; format: cell-based
Salmonella typhimurium [5] = experiment: Mutagenicity in Salmonella typhimurium TA98 assessed as revertant colonies at 6 to 500 ug/plate by Ames test in presence of mouse liver S9 fraction; format: toxicity, organism-based; conditions: salmonella enterica subsp. enterica serovar typhimurium
Rattus norvegicus [6] = experiment: Induction of quinone reductase activity in cytosolic fraction of Wistar rat liver at 15 mg/kg/day, po for two weeks using 2,6-DCIP as substrate measured for 1 min relative to control; format: functional
Rattus norvegicus [7] = experiment: Toxicity in Wistar rat assessed as change in body weight at 15 mg/kg/day, po for two weeks; format: organism-based; conditions: in vivo
[8] = Toxicity in Wistar rat assessed as survival at 15 mg/kg/day, po for two weeks; format: organism-based; conditions: in vivo
Rattus norvegicus [9] = experiment: Induction of glutathione S-transferase activity in cytosolic fraction of Wistar rat liver at 15 mg/kg/day, po for two weeks using CDNB as substrate measured for 1 min relative to control; format: functional
Rattus norvegicus [10] = experiment: Toxicity in Wistar rat assessed as change in behaviors at 15 mg/kg/day, po for two weeks; format: organism-based; conditions: in vivo
Salmonella typhimurium [11] = experiment: Mutagenicity in Salmonella typhimurium TA98 assessed as revertant colonies at 2 to 167 ug/plate by Ames test in presence of mouse liver S9 fraction; format: toxicity, organism-based; conditions: salmonella enterica subsp. enterica serovar typhimurium
Salmonella typhimurium [12] = experiment: Mutagenicity in Salmonella typhimurium TA98 assessed as revertant colonies at 2 to 167 ug/plate by Ames test in absence of mouse liver S9 fraction; format: toxicity, organism-based; conditions: salmonella enterica subsp. enterica serovar typhimurium
Mus musculus [13] = species: Mus musculus; experiment: Ratio of induction of quinone reductase specific activity in mouse mutant BpRc1 cells to mouse Hepa1c1c7 cells; format: cell-based
Mus musculus [14] = species: Mus musculus; experiment: Induction of quinone reductase specific activity in mouse Hepa1c1c7 cells assessed as concentration required to double enzyme specific activity using 2,6-DCIP as substrate measured for 1 min; format: cell-based
[15] = Chemoprotective index, ratio of IC50 for mouse mutant BpRc1 cells to CD for quinone reductase activity in mouse mutant BpRc1 cells
[16] = Cytotoxicity against mouse mutant BpRc1 cells after 48 hrs by SRB assay; format: cell-based; conditions: BPrc1, 48 h
[17] = Cytotoxicity against mouse Hepa1c1c7 cells after 48 hrs by SRB assay; format: cell-based; conditions: Hepa-1c1c7, 48 h
[18] = Chemoprotective index, ratio of IC50 for mouse Hepa1c1c7 cells to CD for quinone reductase activity in mouse Hepa1c1c7 cells
Mus musculus [19] = species: Mus musculus; experiment: Induction of quinone reductase activity in mouse mutant BpRc1 cells using 2,6-DCIP as substrate measured for 1 min; format: cell-based
Salmonella typhimurium [20] = experiment: Mutagenicity in Salmonella typhimurium TA98 assessed as revertant colonies at 0.5 to 30 ug/plate by Ames test in absence of mouse liver S9 fraction; format: toxicity, organism-based; conditions: salmonella enterica subsp. enterica serovar typhimurium
Salmonella typhimurium [21] = experiment: Mutagenicity in Salmonella typhimurium TA98 assessed as revertant colonies at 0.5 to 30 ug/plate by Ames test in presence of mouse liver S9 fraction; format: toxicity, organism-based; conditions: salmonella enterica subsp. enterica serovar typhimurium
Salmonella typhimurium [22] = experiment: Mutagenicity in Salmonella typhimurium TA98 assessed as revertant colonies at 0.02 to 2 ug/plate by Ames test in absence of mouse liver S9 fraction; format: toxicity, organism-based; conditions: salmonella enterica subsp. enterica serovar typhimurium
Salmonella typhimurium [23] = experiment: Mutagenicity in Salmonella typhimurium TA98 assessed as revertant colonies at 0.02 to 2 ug/plate by Ames test in presence of mouse liver S9 fraction; format: toxicity, organism-based; conditions: salmonella enterica subsp. enterica serovar typhimurium
Rattus norvegicus [24] = experiment: Induction of glutathione S-transferase activity in cytosolic fraction of Wistar rat colon at 15 mg/kg/day, po for two weeks using CDNB as substrate measured for 1 min relative to control; format: functional
Rattus norvegicus [25] = experiment: Induction of quinone reductase activity in cytosolic fraction of Wistar rat colon at 15 mg/kg/day, po for two weeks using 2,6-DCIP as substrate at 10 uM measured for 1 min relative to control; format: functional
Salmonella typhimurium [26] = experiment: Mutagenicity in Salmonella typhimurium TA98 assessed as revertant colonies at 5 to 400 ug/plate by Ames test in absence of mouse liver S9 fraction; format: toxicity, organism-based; conditions: salmonella enterica subsp. enterica serovar typhimurium
Rattus norvegicus [27] = experiment: Induction of CYP450 activity in microsomal fraction of Wistar rat liver at 15 mg/kg/day, po for two weeks using 7-ethoxyresorufine as substrate measured for 5 mins relative to control; format: ADME, organism-based; conditions: in vivo
Salmonella typhimurium [28] = experiment: Mutagenicity in Salmonella typhimurium TA98 assessed as revertant colonies at 5 to 400 ug/plate by Ames test in presence of mouse liver S9 fraction; format: toxicity, organism-based; conditions: salmonella enterica subsp. enterica serovar typhimurium
Rattus norvegicus [29] = experiment: Induction of CYP450 activity in microsomal fraction of Wistar rat colon at 15 mg/kg/day, po for two weeks using 7-ethoxyresorufine as substrate measured for 5 mins; format: ADME, organism-based; conditions: in vivo
[30] = biological target: T1, Nuclear factor erythroid 2-related factor 2 (Mus musculus) (UniProt Q60795); experiment: Induction of Nrf2 nuclear translocation in mouse Hepa1c1c7 cells assessed as protein accumulation in nucleus at 20 uM by DAPI staining based immunofluorescence assay; format: cell-based
T1 sequence (whole entry): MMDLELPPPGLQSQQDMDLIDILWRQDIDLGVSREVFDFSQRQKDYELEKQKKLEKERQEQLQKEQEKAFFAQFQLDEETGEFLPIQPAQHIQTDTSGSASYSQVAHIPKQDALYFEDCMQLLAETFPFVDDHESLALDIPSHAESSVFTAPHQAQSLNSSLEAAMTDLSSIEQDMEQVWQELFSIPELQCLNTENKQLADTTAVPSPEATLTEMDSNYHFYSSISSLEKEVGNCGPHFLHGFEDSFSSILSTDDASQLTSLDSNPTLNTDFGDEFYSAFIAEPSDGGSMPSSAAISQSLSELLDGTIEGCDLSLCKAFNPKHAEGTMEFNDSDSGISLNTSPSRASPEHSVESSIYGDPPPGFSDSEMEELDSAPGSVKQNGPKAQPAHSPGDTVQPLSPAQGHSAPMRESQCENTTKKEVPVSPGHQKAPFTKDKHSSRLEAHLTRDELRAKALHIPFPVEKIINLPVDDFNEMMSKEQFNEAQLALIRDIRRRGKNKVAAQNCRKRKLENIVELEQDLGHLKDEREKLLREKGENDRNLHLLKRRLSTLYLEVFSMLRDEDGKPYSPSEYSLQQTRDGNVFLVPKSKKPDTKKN

Salmonella typhimurium [31] = experiment: Mutagenicity in Salmonella typhimurium TA98 assessed as revertant colonies at 0.5 to 40 ug/plate by Ames test in presence of mouse liver S9 fraction; format: toxicity, organism-based; conditions: salmonella enterica subsp. enterica serovar typhimurium
Salmonella typhimurium [32] = experiment: Mutagenicity in Salmonella typhimurium TA98 assessed as revertant colonies at 0.5 to 40 ug/plate by Ames test in absence of mouse liver S9 fraction; format: toxicity, organism-based; conditions: salmonella enterica subsp. enterica serovar typhimurium

Row | Structure (SMILES) | Activity (HT-29) | fold change (FC) (Mus musculus [1]) | fold change (FC) (Mus musculus [2]) | Activity (MCF7) | Ratio (Mus musculus [4]) | Activity (Rattus norvegicus [6]) | Activity (Rattus norvegicus [7]) | survival at 2 weeks [8] [%] | Activity (Rattus norvegicus [10]) | further results
1 | Cc1c(/C=C/C(=O)c2ccccc2O)no[n+]1[O-] | Active | 1.49 | 1.18 | Active | 1.26 | – | – | – | – | Activity (Salmonella typhimurium [3]): Non-toxic; Activity (Salmonella typhimurium [5]): Non-toxic
2 | O=C(/C=C/c1ccccc1)c1ccccc1O [2'-HYDROXYCHALCONE] | – | – | – | – | – | Active | Non-toxic | 100 | Non-toxic | Activity (Rattus norvegicus [9]): Active
3 | COc1ccc(/C=C/C(=O)c2ccccc2)cc1 [4-METHOXY CHALCONE] | – | – | – | – | – | Active | Non-toxic | 100 | Non-toxic | –
4 | O=C(/C=C/c1ccc2c(c1)no[n+]2[O-])c1ccccc1 | Active | 1.01 | 1.7 | Active | 0.59 | – | – | – | – | Activity (Salmonella typhimurium [11]): Non-toxic; Activity (Salmonella typhimurium [12]): Toxic
5 | O=c1cc(-c2ccc(Br)cc2)oc2ccccc12 | – | 4.45 | 1.49 | – | 2.99 | – | – | – | – | Ratio (Mus musculus [13]): 100; CD (Mus musculus [14]): 0.79 µM; Ratio [15]: 1.9; IC50 [16]: 150 µM; IC50 [17]: 85 µM; Ratio [18]: 107; CD (Mus musculus [19]): 80 µM
6 | O=C(/C=C/c1c(-c2ccccc2)no[n+]1[O-])c1ccc2ccccc2c1 | – | 2.49 | 1.06 | – | 2.35 | – | – | – | – | Activity (Salmonella typhimurium [20]): Non-toxic; Activity (Salmonella typhimurium [21]): Non-toxic
7 | Cc1c(/C=C/C(=O)c2ccccc2)no[n+]1[O-] | Active | 1.35 | 1.01 | Active | 1.34 | – | – | – | – | Activity (Salmonella typhimurium [22]): Non-toxic; Activity (Salmonella typhimurium [23]): Non-toxic
8 | Cc1c(/C=C/C(=O)c2ccc3ccccc3c2)no[n+]1[O-] | Active | 1.49 | 0.99 | Active | 1.5 | – | – | – | – | Activity (Salmonella typhimurium [3]): Non-toxic; Activity (Salmonella typhimurium [5]): Non-toxic
9 | O=C(/C=C/c1c(-c2ccccc2)no[n+]1[O-])c1ccccc1 | Active | 1.9 | 1.58 | Active | 1.2 | 110% | Non-toxic | 100 | Non-toxic | Ratio (Mus musculus [13]): 1.1; CD (Mus musculus [14]): 12 µM; Ratio [15]: 2.9; Activity (Rattus norvegicus [24]): 13%; Activity (Rattus norvegicus [25]): 12%; Activity (Salmonella typhimurium [26]): Non-toxic; IC50 [16]: 38 µM; Activity (Rattus norvegicus [9]): 180%; IC50 [17]: 36 µM; Ratio [18]: 3; Activity (Rattus norvegicus [27]): 60%; Activity (Salmonella typhimurium [28]): Non-toxic; Activity (Rattus norvegicus [29]): Not Active; CD (Mus musculus [19]): 13 µM; Activity [30]: Active
10 | O=C(/C=C/c1ccc2c(c1)no[n+]2[O-])c1ccccc1O | – | 1.39 | 1.18 | – | 1.18 | – | – | – | – | Activity (Salmonella typhimurium [3]): Non-toxic; Activity (Salmonella typhimurium [5]): Non-toxic
11 | O=C(/C=C/c1ccc(Br)cc1)c1ccccc1O | – | – | – | – | – | 128% | Non-toxic | 100 | Non-toxic | –
12 | O=C(/C=C/c1c(-c2ccccc2)no[n+]1[O-])c1ccccc1O | Active | 3.01 | 1.82 | Active | 1.65 | 80% | Non-toxic | 100 | Non-toxic | Ratio (Mus musculus [13]): 1.5; CD (Mus musculus [14]): 8 µM; Ratio [15]: 3.2; Activity (Rattus norvegicus [24]): Active; Activity (Rattus norvegicus [25]): Active; Activity (Salmonella typhimurium [31]): Non-toxic; Activity (Salmonella typhimurium [32]): Non-toxic; IC50 [16]: 38 µM; Activity (Rattus norvegicus [9]): 110%; IC50 [17]: 40 µM; Ratio [18]: 5; Activity (Rattus norvegicus [27]): 40%; Activity (Rattus norvegicus [29]): Active; CD (Mus musculus [19]): 12 µM; Activity [30]: Active
13 | O=C(/C=C/c1ccc2c(c1)no[n+]2[O-])c1ccc2ccccc2c1 | Active | 1.77 | 1.01 | Active | 1.75 | – | – | – | – | –
14 | CC(C)(C)c1cc(O)ccc1O [E319] | – | – | – | – | – | – | – | – | – | Ratio (Mus musculus [13]): 6; CD (Mus musculus [14]): 1 µM; Ratio [15]: 10; IC50 [16]: 60 µM; IC50 [17]: 147 µM; Ratio [18]: 147; CD (Mus musculus [19]): 6 µM; Activity [30]: Active
